This note sets out measurements from patent publication US7253286B2, “Nitrogen-containing aromatic derivatives” (Eisai Co., Ltd, priority 2000, dated 2007).

Structures are written as SMILES. Structures can show the parent of a compound that is named as a salt.

Assay [1] relates to Human Umbilical Vein Endothelial Cells (HUVECs). The experiment in a line: Inhibition against sandwich tube formation by vascular endothelial cells in response to stimulation by VEGF. The format is cell-based. The settings on record: HUVEC in collagen gel sandwich, stimulation by VEGF (25 ng/ml VEGF and 10 ng/ml EGF), 4th day, total tube length, read-out: IC50 (concentration required for 50% inhibition of tube formation). On the procedure: Inhibition Against Sandwich Tube Formation by Vascular Endothelial Cells in Response to Stimulation by Angiogenic Factor
Human Umbilical Vein Endothelial Cells (HUVECS) were isolated by the same method as in Pharmacological Test Example 1, and were cultured in a 5% CO2 incubator (37° C.) using EGM-2 medium (purchased from Clonetics Corp.) until the cells reached confluency.
An ice-cooled mixture of collagen: 5× RPMI 1640: reconstitution buffer (all purchased from Nitta Gelatin, Inc.) at 7:2:1 was dispensed at 0.4 ml into each well of a 24-well plate, and then stationed for 40 minutes in a 5% CO2 incubator (37° C.) for gelling. The HUVECs were recovered using trypsin-EDTA and then suspended in human endothelial serum free medium (SFM, purchased from GIBCO BRL) containing added angiogenic factors [20 ng/ml FGF2 (purchased from GIBCO BRL) and 10 ng/ml EGF (purchased from GIBCO BRL), or 25 ng/ml VEGF (purchased from Wako Pure Chemical Industries Co., Ltd.) and 10 ng/ml EGF, or 30 ng/ml HGF (purchased from R&D Co.) and 10 ng/ml EGF], and the cell suspension was added at 0.4 ml to each well (with the cell counts differing slightly according to the HUVEC lot), and cultured overnight in a 5% CO2 incubator (37° C.). On the following day, the medium on the upper layer was aspirated off, and then 0.4 ml of an ice-cooled mixture of collagen: 5× RPMI 1640: reconstitution buffer (all purchased from Nitta Gelatin, Inc.) at 7:2:1 was superposed into each well prior to stationing for 4 hours in a 5% CO2 incubator (37° C.) for gelling. After adding 1.5 ml of an SFM solution containing each of the aforementioned angiogenic factors and a diluted test substance onto the upper layer, culturing was performed in a 5% CO2 incubator (37° C.). Upon aspirating off the culture supernatant in each well on the 4th day after addition of the test substance, 0.4 ml of a 3.3 mg/ml MTT solution dissolved in PBS (purchased from Sigma Corp.) was added to each well and culturing was performed for approximately 2 hours in a 5% CO2 incubator (37° C.). The tubes formed in the collagen gel of each well were stained by the MTT, the tube images were loaded into a computer (Macintosh), and the total length of the tubes was determined by image analysis software “MacScope” (purchased from Mitani Corp.). The ratio of the total length of the tubes formed in the well containing the test substance with respect to the total length of the tubes formed in the well containing no test substance was expressed as a percentage, and the concentration of each test substance required for 50% inhibition of tube formation (IC50) was determined from the ratio value.

For assay [2] the test system is unchanged. The experiment in a line: Inhibition against invasive tube formation by vascular endothelial cells in response to stimulation by angiogenic factor mixture. In kind it is cell-based. On the set-up: key: the number of tubes formed in the absence of the test substance was designated as +++; scored on the 5-level scale of +++, ++, +, +/−, −; scored on the 5-level scale of +++, ++, +, +/−, −; scored on the 5-level scale of +++, ++, +, +/−, −; − was assigned if absolutely no tubes formed. The settings on record: HUVEC on fibrin gel, EGF/FGF2/VEGF/HGF/TNF-α mixture, 6th day, MTT staining; for number of tubes formed in the fibrin gel (score) at 0.01 μM: test substance 0.01 μM; for number of tubes formed in the fibrin gel (score) at 0.1 μM: test substance 0.1 μM; for number of tubes formed in the fibrin gel (score) at 1.0 μM: test substance 1.0 μM. On the procedure: Inhibition Against Invasive Tube Formation by Vascular Endothelial Cells in Response to Stimulation by Angiogenic Factor Mixture
Human Umbilical Vein Endothelial Cells (HUVECs) were isolated according to a reported method (Shinseikagaku Jikken Koza [New Biochemistry Experiment Lectures], “Saibo Baiyo Gijutsu” [Cell Culturing Techniques], p.197–202), and were cultured in a 5% CO2 incubator (37° C.) using EGM-2 medium (purchased from Clonetics Corp.) until the cells reached confluency. After adding 0.4 ml of bovine fibrinogen (purchased from Sigma Co.) to the inner well of a Transwell culturing plate (purchased from Coster Inc.), it was hardened with 0.7 units/ml of thrombin (purchased from Sigma Co.). The HUVECs were recovered using trypsin-EDTA and then suspended in human endothelial serum free medium basal growth medium (hereinafter abbreviated as SFM, purchased from GIBCO BRL), and 0.4 ml of the cell suspension (1.4×10^5 cells) was seeded onto the hardened fibrin gel and cultured for approximately 4 hours in a 5% CO2 incubator (37° C.). After 4 hours, there was added to the outer chamber of the Transwell 1.5 ml of an SFM solution containing a mixture of angiogenic factors {10 ng/ml EGF (purchased from GIBCO BRL), 30 ng/ml FGF2 (purchased from GIBCO BRL), 75 ng/ml VEGF (purchased from Wako Pure Chemical Industries Co., Ltd.), 50 ng/ml HGF (purchased from R&D Co.) and 7.5 ng/ml TNF-α (purchased from Genzyme Corp.) [The concentrations of the angiogenic factors differed slightly according to the HUVEC lot.]} and a diluted test substance, and culturing was carried out in a 5% CO2 incubator (37° C.). On the 2nd and 4th days after adding the test substance, the medium was exchanged with 1.5 ml of freshly prepared SFM solution containing the angiogenic factor mixture and test substance. Upon aspirating off the culture supernatant in the inner well on the 6th day after the initial addition of the test substance, 0.4 ml of a 3.3 mg/ml MTT solution dissolved in PBS (purchased from Sigma Corp.) was added and culturing was performed for approximately 1 hour in a 5% CO2 incubator (37° C.). The number of tubes formed in the fibrin gel stained with MTT was scored based on microscope observation. Specifically, the number of tubes formed in the absence of the test substance was designated as +++, while − was assigned if absolutely no tubes formed. The number of tubes formed in the presence of the test substance was scored on the 5-level scale of +++, ++, +, +/−, − to evaluate the strength of inhibition of the test substance.

As for `CCN1CCN(CCCOc2cc3nccc(Oc4ccc(NC(=O)Nc5ccc(OC)cc5)cc4)c3cc2C#N)CC1` [Example 53, N-(4-(6-Cyano-7-(3-(1-(4-ethyl)piperazino)propoxy)-4-quinolyl)oxyphenyl)-N′-(4-methoxyphenyl)urea], the IC50 in assay [1] was determined as 9.9 nM. In addition, in assay [2], the “number of tubes formed in the fibrin gel (score) at 0.01 μM” value (“number of tubes formed … at 0.01 μM” below) is given as “+++”, the “number of tubes formed in the fibrin gel (score) at 0.1 μM” value (“number of tubes formed … at 0.1 μM” for short) was “+/−” and the “number of tubes formed in the fibrin gel (score) at 1.0 μM” value (“number of tubes formed … at 1.0 μM” for short) was “−”.

As for `COc1ccc(NC(=O)Nc2ccc(Oc3ccnc4cc(OCCOCCO)c(C#N)cc34)cc2)cc1` [Example 72, N-(4-(6-Cyano-7-(2-(2-hydroxyethoxy)ethoxy)-4-quinolyl)oxyphenyl)-N′-(4-methoxyphenyl)urea], the IC50 in assay [1] is 22 nM. In assay [2], the “number of tubes formed … at 0.01 μM” value is listed as “+++”, the “number of tubes formed … at 0.1 μM” value is given as “−” and the “number of tubes formed … at 1.0 μM” value is “−”.

As to `O=C(Nc1ccc(Oc2ncnc3[nH]c(-c4ccccc4)cc23)cc1)Nc1cccc(F)c1` [Example 172, 1-(3-Fluorophenyl)-3-[4-(6-phenyl-7H-pyrrolo[2,3-d]pyrimidin-4-yloxy)phenyl]urea], in assay [2], the “number of tubes formed … at 0.01 μM” value is on record as “+”, the “number of tubes formed … at 0.1 μM” value is listed as “+/−” and the “number of tubes formed … at 1.0 μM” value is reported as “+/−”.

With `O=C(Nc1cc(Oc2ccc3c(ccn3C(=O)NC3CC3)c2)ccn1)C1CC1` [Example 212, N1-Cyclopropyl-5-({2-[(cyclopropylcarbonyl)amino]-4-pyridyl}oxy)-1H-1-indolecarboxamide], in assay [2], the “number of tubes formed … at 0.01 μM” value is given as “+/−”, the “number of tubes formed … at 0.1 μM” value is on record as “−” and the “number of tubes formed … at 1.0 μM” value is “−”.

As for `COc1cc2nccc(Sc3ccc(NC(=O)Nc4ccc(F)cc4)s3)c2cc1C(N)=O` [Example 245, 4-(5-(3-(4-Fluorophenyl)ureido)thiophen-2-ylsulfanyl)-7-methoxyquinoline-6-carboxamide], in assay [2], the “number of tubes formed … at 0.01 μM” value is reported as “+/−”, the “number of tubes formed … at 0.1 μM” value was “−” and the “number of tubes formed … at 1.0 μM” value is “−”.

As for `CCN(CC)C[C@@H](O)COc1cc2nccc(Oc3ccc(NC(=O)Nc4ccc(F)cc4)cc3)c2cc1C#N` [Example 455, N-(4-((6-Cyano-7-(((2R)-3-(diethylamino)-2-hydroxypropyl)oxy)-4-quinolyl)oxy)phenyl)-N′-(4-fluorophenyl)urea], the IC50 in assay [1] was 7.8 nM.

For `COc1cc2nccc(Oc3ccc(NC(=O)NC4CC4)c(C)c3C)c2cc1C(N)=O` [Example 490, N-[4-(6-Carbamoyl-7-methoxy-4-quinolyl)oxy-2,3-dimethylphenyl]-N′-cyclopropylurea], the IC50 in assay [1] stood at 26 nM.

As for `N#Cc1cc2c(Oc3ccc(NC(=O)Nc4ccc(F)cc4)c(F)c3)ccnc2cc1OCC(O)CN1CCCC1` (stereo not drawn) [Example 492, N-{4-[6-Cyano-7-(2-hydroxy-3-(pyrrolidin-1-yl)propoxy)quinolin-4-yloxy]-2-fluorophenyl}-N′-(4-fluorophenyl)urea], in assay [1], the IC50 was found to be 7.2 nM.

Turning to `CCN(CC)CC(O)COc1cc2nccc(Oc3ccc(NC(=O)Nc4ccc(F)cc4)c(F)c3)c2cc1C#N` (stereo not drawn) [Example 493, N-{4-[6-Cyano-7-(3-diethylamino-2-hydroxypropoxy)quinolin-4-yloxy]-2-fluorophenyl}-N′-(4-fluorophenyl)urea], the IC50 in assay [1] is 9 nM.

Turning to `N#Cc1cc2c(Oc3ccc(NC(=O)Nc4ccc(F)cc4)c(F)c3)ccnc2cc1OCC(O)CN1CCOCC1` (stereo not drawn) [Example 494, N-{4-[6-Cyano-7-(2-hydroxy-(3-morpholin-4-yl)propoxy)quinolin-4-yloxy]-2-fluorophenyl}-N′-(4-fluorophenyl)urea], in assay [1], the IC50 is 9.3 nM.

On to `N#Cc1cc2c(Oc3ccc(NC(=O)Nc4ccc(F)cc4)c(F)c3)ccnc2cc1OC[C@H](O)CN1CCCCC1` [Example 497, N-(4-{6-Cyano-7-[(2R)-2-hydroxy-3-(piperidin-1-yl)propoxy]quinolin-4-yloxy}-2-fluorophenyl)-N′-(4-fluorophenyl)urea], for which the IC50 in assay [1] was 4.6 nM.

For the compound `N#Cc1cc2c(Oc3ccc(NC(=O)Nc4nccs4)c(F)c3)ccnc2cc1OCC1CCNCC1` [Example 503, N-{4-[6-Cyano-7-(piperidin-4-ylmethoxy)quinolin-4-yloxy]-2-fluorophenyl}-N′-(2-thiazolyl)urea], the IC50 in assay [1] was 6.4 nM.

For `CN1CCC(COc2cc3nccc(Oc4ccc(NC(=O)Nc5nccs5)c(F)c4)c3cc2C#N)CC1` [Example 504, N-{4-[6-Cyano-7-(1-methylpiperidin-4-ylmethoxy)quinolin-4-yloxy]-2-fluorophenyl}-N′-(2-thiazolyl)urea], the IC50 in assay [1] is 4.6 nM.

Turning to `CN1CCCC(COc2cc3nccc(Oc4ccc(NC(=O)Nc5nccs5)c(F)c4)c3cc2C#N)C1` (stereo not drawn) [Example 505, N-{4-[6-Cyano-7-(1-methylpiperidin-3-ylmethoxy)quinolin-4-yloxy]-2-fluorophenyl}-N′-(2-thiazolyl)urea], the IC50 in assay [1] turned out to be 8.9 nM.

On to `CCNC(=O)n1ccc2cc(Oc3ccnc4cc(OC)c(C(=O)NCCF)cc34)ccc21` [Example 518], for which the IC50 in assay [1] was determined as 1.3 nM.

`CCNC(=O)n1ccc2cc(Oc3ccnc4cc(OC)c(C(=O)NOC)cc34)ccc21` [Example 520, 6-Methoxycarbamoyl-7-methoxy-4-((1-ethylcarbamoyl)indol-5-yloxy)quinoline]: in assay [1], the IC50 was determined as 1.5 nM.

Regarding `CONC(=O)c1cc2c(Oc3ccc4c(ccn4C(=O)NC4CC4)c3)ccnc2cc1OC` [Example 521, 6-Methoxycarbamoyl-7-methoxy-4-((1-cyclopropylcarbamoyl)indol-5-yloxy)quinoline], the IC50 in assay [1] was 0.5 nM.

On to `COc1cc(Nc2cc(Oc3ccc(NC(=O)Nc4ccccc4)cc3)ncn2)cc(OC)c1OC` [Example 578, N-Phenyl-N′-(4-(6-(3,4,5-trimethoxyphenylamino)pyrimidin-4-yloxy)phenyl)urea hydrochloride], for which the IC50 in assay [1] was determined as 13 nM.
